By DC50 is commonly meant the midpoint of the concentration-degradation curve.

Molecules are shown by their SMILES.

CK1alpha, sequence (P48729 whole entry, looked up): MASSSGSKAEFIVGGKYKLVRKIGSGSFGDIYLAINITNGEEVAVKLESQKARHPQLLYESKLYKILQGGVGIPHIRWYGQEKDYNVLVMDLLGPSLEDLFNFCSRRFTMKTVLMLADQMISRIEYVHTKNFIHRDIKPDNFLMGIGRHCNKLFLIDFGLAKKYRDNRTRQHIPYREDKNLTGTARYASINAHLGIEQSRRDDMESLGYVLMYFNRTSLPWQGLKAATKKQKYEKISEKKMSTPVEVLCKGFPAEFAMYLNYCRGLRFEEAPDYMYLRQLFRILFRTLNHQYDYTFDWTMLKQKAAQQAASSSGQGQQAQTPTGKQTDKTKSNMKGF

The target in one assay is T1, GSPT1 (Homo sapiens (Human), UniProt P15170+Q96SW2). As to the kind of experiment: immunofluorescence assay for GSPT1 degradation in CAL-51 cells (Example 4). It counts as cell-based. The settings on record: 6 hours, read-out: Activity for GSPT1 degradation, Code (DC50). In outline:
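CAL-51 cells on fibronectin-coated plates were treated 6 h with serial dilutions (30 μM to 0.1 nM), then fixed and immunostained for GSPT1 with DAPI and phalloidin counterstains. Per-cell mean GSPT1 intensity from high-content imaging, normalized to controls; DC50 by non-linear regression.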
Target sequence in this assay (P15170 whole entry): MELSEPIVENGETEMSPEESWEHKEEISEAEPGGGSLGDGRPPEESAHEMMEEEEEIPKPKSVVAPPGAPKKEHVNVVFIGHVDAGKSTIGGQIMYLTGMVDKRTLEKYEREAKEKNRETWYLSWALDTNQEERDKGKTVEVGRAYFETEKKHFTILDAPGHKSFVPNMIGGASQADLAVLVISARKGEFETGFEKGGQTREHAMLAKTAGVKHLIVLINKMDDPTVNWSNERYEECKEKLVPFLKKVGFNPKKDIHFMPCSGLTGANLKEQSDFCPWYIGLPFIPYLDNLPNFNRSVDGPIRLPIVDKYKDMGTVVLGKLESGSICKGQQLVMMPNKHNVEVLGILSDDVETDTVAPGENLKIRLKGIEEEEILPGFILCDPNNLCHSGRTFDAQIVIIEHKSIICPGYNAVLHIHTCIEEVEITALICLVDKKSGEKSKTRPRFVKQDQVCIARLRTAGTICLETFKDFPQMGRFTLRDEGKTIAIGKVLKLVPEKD
Target sequence in this assay (Q96SW2 whole entry): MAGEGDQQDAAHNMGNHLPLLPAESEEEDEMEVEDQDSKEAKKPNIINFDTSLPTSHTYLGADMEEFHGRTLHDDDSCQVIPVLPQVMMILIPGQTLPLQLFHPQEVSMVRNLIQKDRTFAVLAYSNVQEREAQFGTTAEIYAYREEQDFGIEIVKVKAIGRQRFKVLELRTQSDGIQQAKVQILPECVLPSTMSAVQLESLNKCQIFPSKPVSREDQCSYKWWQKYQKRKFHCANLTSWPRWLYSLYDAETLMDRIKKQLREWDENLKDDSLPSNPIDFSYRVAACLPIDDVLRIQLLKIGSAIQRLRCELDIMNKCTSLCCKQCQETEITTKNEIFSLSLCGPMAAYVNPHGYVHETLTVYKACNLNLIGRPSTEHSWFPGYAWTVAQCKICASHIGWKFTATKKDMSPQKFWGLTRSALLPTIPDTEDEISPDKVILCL
Target sequence in this assay (Q16531 2-1140 partner): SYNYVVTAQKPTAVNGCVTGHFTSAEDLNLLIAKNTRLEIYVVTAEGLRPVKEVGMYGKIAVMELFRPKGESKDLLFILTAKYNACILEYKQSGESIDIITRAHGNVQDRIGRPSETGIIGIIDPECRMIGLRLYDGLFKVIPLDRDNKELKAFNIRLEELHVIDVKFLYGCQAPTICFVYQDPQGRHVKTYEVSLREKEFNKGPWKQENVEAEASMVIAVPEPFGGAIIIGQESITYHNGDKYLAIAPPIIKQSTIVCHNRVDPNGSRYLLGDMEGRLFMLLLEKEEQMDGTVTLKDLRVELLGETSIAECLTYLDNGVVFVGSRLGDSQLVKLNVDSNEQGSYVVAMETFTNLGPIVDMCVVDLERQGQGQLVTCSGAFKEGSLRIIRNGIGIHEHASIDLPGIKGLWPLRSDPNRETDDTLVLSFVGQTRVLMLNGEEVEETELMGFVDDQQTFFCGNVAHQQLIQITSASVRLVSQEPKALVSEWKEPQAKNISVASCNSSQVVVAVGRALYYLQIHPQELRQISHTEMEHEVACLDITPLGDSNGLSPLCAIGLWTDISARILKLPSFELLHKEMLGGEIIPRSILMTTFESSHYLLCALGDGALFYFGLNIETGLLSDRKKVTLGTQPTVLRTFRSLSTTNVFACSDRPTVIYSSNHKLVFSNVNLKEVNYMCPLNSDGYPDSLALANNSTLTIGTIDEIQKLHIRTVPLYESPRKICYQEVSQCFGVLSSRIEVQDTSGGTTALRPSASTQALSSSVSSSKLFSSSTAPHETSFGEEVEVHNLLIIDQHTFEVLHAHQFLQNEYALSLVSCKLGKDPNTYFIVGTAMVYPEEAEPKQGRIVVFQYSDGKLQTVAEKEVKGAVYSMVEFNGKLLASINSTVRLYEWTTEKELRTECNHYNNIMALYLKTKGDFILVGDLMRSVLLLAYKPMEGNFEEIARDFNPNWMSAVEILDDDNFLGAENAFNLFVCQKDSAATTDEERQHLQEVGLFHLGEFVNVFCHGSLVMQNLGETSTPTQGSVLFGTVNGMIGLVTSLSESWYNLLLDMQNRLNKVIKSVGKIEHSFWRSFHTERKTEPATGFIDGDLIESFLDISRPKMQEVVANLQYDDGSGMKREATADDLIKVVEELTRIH
For the compound `Cc1ncc(NC(=O)OCc2ccc3c(c2)C(=O)N(C2CCC(=O)NC2=O)C3)cc1Cl` (stereo not shown) [Compound 6], the DC50 is below 30 nM.
On the same count and under the same terms, then `Cc1ccc(NC(=O)OCc2ccc3c(c2)C(=O)N(C2CCC(=O)NC2=O)C3)cc1Cl` (stereo not shown) [Compound 10], with below 30 nM.
On the same count and under the same terms, then `O=C1CCC(N2Cc3ccc(COC(=O)Nc4ccc(N5CCCCC5)nc4)cc3C2=O)C(=O)N1` (stereo not shown) [Compound 15], with below 30 nM; and `O=C1CCC(N2Cc3ccc(COC(=O)Nc4ccc(-c5ccccc5)nc4)cc3C2=O)C(=O)N1` (stereo not shown) [Compound 42], with below 30 nM; and `CC(C)(C)c1ccc(NC(=O)OCc2ccc3c(c2)C(=O)N(C2CCC(=O)NC2=O)C3)cn1` (stereo not shown) [Compound 43], with below 30 nM.

Still in this assay, the particulars now being: GSPT1 degradation, read-out: DC50 value.
`Cc1ncc(NC(=O)OCc2ccc3c(c2)C(=O)N(C2CCC(=O)NC2=O)C3)cc1Cl` (stereo not shown) [Compound 6]: the DC50 is at most 30 nM.
As for `Cc1ccc(NC(=O)OCc2ccc3c(c2)C(=O)N(C2CCC(=O)NC2=O)C3)cc1Cl` (stereo not shown) [Compound 10], the DC50 is at most 30 nM.
On the same count and under the same terms, then `O=C1CCC(N2Cc3ccc(COC(=O)Nc4ccc(N5CCCCC5)nc4)cc3C2=O)C(=O)N1` (stereo not shown) [Compound 15], with at most 30 nM; and `O=C1CCC(N2Cc3ccc(COC(=O)Nc4ccc(-c5ccccc5)nc4)cc3C2=O)C(=O)N1` (stereo not shown) [Compound 42], with at most 30 nM.
As to `CC(C)(C)c1ccc(NC(=O)OCc2ccc3c(c2)C(=O)N(C2CCC(=O)NC2=O)C3)cn1` (stereo not shown) [Compound 43], the DC50 is at most 30 nM.

In the next assay the target is CK1alpha (Homo sapiens (Human), UniProt P48729). The assay can be described thus: selectivity by Western blot in MM1S cells, CK1alpha. It counts as cell-based. Details: key to CK1alpha degradation: A represents a no degradation observed at 30 μM; B represents trace degradation at 30 μM (below 20%); C represents weak degradation at 30 μM (below 50%); D represents degradation at 30 μM (>90%); E represents degradation at 3 μM (>90%); F represents degradation at 0.3 μM (>90%). The settings on record: MM1S cells, 6 hours, 0.3, 3 and 30 μM. As to the method:
(§1) MM1S cells were purchased from ATCC (cat. Number CRL-2974), sub-cultured in 90% RPMI 1640 with 10% FBS, supplemented with 1× P/S and incubated at 37° C., 5% CO2. Compounds were stored as 10 mM DMSO stock. For the assay, MM1S cells (3 million cells/well) were plated in 6-well plates and incubated over night. Cells were treated with respective compounds using a serial dilution: 0.3 μM, 3 μM and 30 μM as well as a vehicle only (DMSO) control for 6 hours. Media with suspension cells was subsequently transferred to 15 mL conical tubes, wells rinsed twice with ice-cold PBS and merged with cell suspension in respective 15 mL conical tube. Cells were spinned down, supernatant aspirated, pellets resuspended in ice-cold PBS and transferred to microtubes. Cells were spinned down, supernatant aspirated and pellets resuspended in 120 μL RIPA lysis buffer supplemented with protease and phosphatase inhibitors. Cell lysates were incubated on ice for 20 minutes followed by centrifugation at >20,000 xg for 5 min. Supernatants were transferred to fresh microtubes and stored at −80° C. Total protein concentration was determined using a BCA assay with a BSA standard curve and concentration of all samples was adjusted to 1 mg/mL. 25 μL 4× LDS sample buffer supplemented with 100 mM DTT was added to 75 μL sample. Samples were centrifuged (8,000 xg, 1 min) and incubated at 95° C. for 5 min followed by another centrifugation step (8,000 xg, 1 min). 20 μL of each sample was loaded on a 4-12% gel alongside a protein molecular weight marker. Gels were run in the presence of MOPS buffer at 80 Volts for 30 min, followed by 120 Volts for 1.5 h and proteins subsequently transferred onto nitrocellulose membranes at 20 Volts for 7 min using an iBlot2 Gel Transfer Device. Membranes were then cut horizontally into two pieces, covering 80-50 kDa and 50-25 kDa. Blocking the membranes was performed by gently shaking in 5% (w/v) skim milk in TSB-T for 1 hr at room temperature. All primary antibodies were used at a 1/1000 in 5% (w/v) BSA dissolved in TBST and incubated with membranes over night at 4° C. Anti-IKZF1 (Ikaros; D6N9Y; 14859S), anti-IKZF3 (Aiolos; D1C1E; 15103S) antibodies were purchased from Cell Signalling Technology, anti-ZFP91 antibody from Bethyl laboratories, anti-GSPT1 from Sigma Aldrich (HPA052488) and anti CK1alpha from AbCam (ab206652). After three washes with 1× TBST for 5 min, HRP-coupled secondary antibodies diluted in 5% (w/v) BSA/TBST (Goat Anti-Rb IgG, dil. 1/10,000; Goat Anti-Mouse IgG, dil. 1/5000) were added for 1 hr at room temperature. After three washes with 1× TBST (5 minutes each), membranes were incubated with ECL reagent for 1 min at room temperature. Chemiluminescence signals were then detected using a LAS-4000 system with default settings and signals quantified using Image Studio Lite software (version 5.2). Membrane parts previously incubated with antibody against CK1alpha were stripped off antibodies by incubating with stripping buffer for 30 minutes followed by three washed with TBST (5 min each), blocking with 5% (w/v) skim milk for 1 hr, and incubation with primary antibody against GAPDH overnight at 4° C. Subsequent washes, incubation with secondary antibody and signal acquisition were performed as described above.
For the compound `Cc1ncc(NC(=O)OCc2ccc3c(c2)C(=O)N(C2CCC(=O)NC2=O)C3)cc1Cl` (stereo not shown) [Compound 6], the CK1alpha degradation result is “A”.
In the case of `Cc1ccc(NC(=O)OCc2ccc3c(c2)C(=O)N(C2CCC(=O)NC2=O)C3)cc1Cl` (stereo not shown) [Compound 10], the CK1alpha degradation result is “B (B represents trace degradation at 30 μM (below 20%))”.
`O=C1CCC(N2Cc3ccc(COC(=O)Nc4ccc(N5CCCCC5)nc4)cc3C2=O)C(=O)N1` (stereo not shown) [Compound 15]: the CK1alpha degradation entry is given as “C (C represents weak degradation at 30 μM (below 50%))”.
Still for that read-out and setting: to `O=C1CCC(N2Cc3ccc(COC(=O)Nc4ccc(-c5ccccc5)nc4)cc3C2=O)C(=O)N1` (stereo not shown) [Compound 42] belongs “B (B represents trace degradation at 30 μM (below 20%))”; to `CC(C)(C)c1ccc(NC(=O)OCc2ccc3c(c2)C(=O)N(C2CCC(=O)NC2=O)C3)cn1` (stereo not shown) [Compound 43], “C (C represents weak degradation at 30 μM (below 50%))”.

Staying with this assay, now noted: highest concentration tested of 30 μM.
On to `Cc1ccc(NC(=O)OCc2ccc3c(c2)C(=O)N(C2CCC(=O)NC2=O)C3)cc1Cl` (stereo not shown) [Compound 10], for which the “CK1alpha degradation (FIG. 1A)” value is listed as “none of the known the substrates IKZF1, IKZF3, SALL4, CK1alpha was degraded”.

In a further assay the target is T1, GSPT1. The assay can be described thus: selectivity by Western blot in MM1S cells, GSPT1. It counts as cell-based. The settings on record: MM1S cells, 6 hours, 0.3, 3 and 30 μM. As to the method:
as §1
On the technique in general: A western blot detects proteins with antibodies after separation by electrophoresis.
Target sequence in this assay (P15170 whole entry, looked up): as the sequence (P15170 whole entry) above
Target sequence in this assay (Q96SW2 whole entry, looked up): as the sequence (Q96SW2 whole entry) above
Target sequence in this assay (Q16531 whole entry partner, looked up): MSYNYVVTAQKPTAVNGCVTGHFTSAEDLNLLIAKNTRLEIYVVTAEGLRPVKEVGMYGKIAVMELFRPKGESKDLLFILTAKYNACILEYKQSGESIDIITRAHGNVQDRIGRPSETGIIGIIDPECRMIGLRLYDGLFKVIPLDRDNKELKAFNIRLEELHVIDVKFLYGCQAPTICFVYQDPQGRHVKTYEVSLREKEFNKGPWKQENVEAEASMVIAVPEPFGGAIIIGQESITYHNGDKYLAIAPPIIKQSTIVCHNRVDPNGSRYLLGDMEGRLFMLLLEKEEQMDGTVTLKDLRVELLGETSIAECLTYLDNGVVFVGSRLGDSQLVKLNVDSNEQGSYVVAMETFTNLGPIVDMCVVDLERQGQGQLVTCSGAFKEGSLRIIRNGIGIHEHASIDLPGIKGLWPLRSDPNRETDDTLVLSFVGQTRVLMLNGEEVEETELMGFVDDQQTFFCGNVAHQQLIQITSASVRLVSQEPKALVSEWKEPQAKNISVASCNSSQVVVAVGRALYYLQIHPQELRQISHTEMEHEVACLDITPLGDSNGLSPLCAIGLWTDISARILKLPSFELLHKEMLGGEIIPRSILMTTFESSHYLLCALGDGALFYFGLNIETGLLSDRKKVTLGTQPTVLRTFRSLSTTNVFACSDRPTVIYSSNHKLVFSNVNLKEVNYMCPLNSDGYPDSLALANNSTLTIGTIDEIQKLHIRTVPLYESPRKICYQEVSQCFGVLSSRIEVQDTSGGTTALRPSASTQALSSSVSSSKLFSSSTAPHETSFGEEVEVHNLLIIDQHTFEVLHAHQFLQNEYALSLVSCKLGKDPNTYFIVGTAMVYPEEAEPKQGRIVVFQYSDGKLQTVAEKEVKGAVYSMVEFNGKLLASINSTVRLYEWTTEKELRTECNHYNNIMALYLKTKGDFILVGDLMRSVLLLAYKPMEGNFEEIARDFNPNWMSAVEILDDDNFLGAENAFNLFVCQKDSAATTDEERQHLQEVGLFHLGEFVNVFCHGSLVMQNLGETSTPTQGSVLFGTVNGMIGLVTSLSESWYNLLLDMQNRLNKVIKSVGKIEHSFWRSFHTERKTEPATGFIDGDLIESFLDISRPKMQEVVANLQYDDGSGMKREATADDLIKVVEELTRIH
As to `Cc1ncc(NC(=O)OCc2ccc3c(c2)C(=O)N(C2CCC(=O)NC2=O)C3)cc1Cl` (stereo not shown) [Compound 6], the GSPT1 degradation entry was “F (F represents degradation at 0.3 μM (>90%))”.
On to `Cc1ccc(NC(=O)OCc2ccc3c(c2)C(=O)N(C2CCC(=O)NC2=O)C3)cc1Cl` (stereo not shown) [Compound 10], for which the GSPT1 degradation result is on record as “D (D represents degradation at 30 μM (>90%))”.
On the same count and under the same terms, to `O=C1CCC(N2Cc3ccc(COC(=O)Nc4ccc(N5CCCCC5)nc4)cc3C2=O)C(=O)N1` (stereo not shown) [Compound 15] belongs “F (F represents degradation at 0.3 μM (>90%))”; to `O=C1CCC(N2Cc3ccc(COC(=O)Nc4ccc(-c5ccccc5)nc4)cc3C2=O)C(=O)N1` (stereo not shown) [Compound 42], “F (F represents degradation at 0.3 μM (>90%))”.
`CC(C)(C)c1ccc(NC(=O)OCc2ccc3c(c2)C(=O)N(C2CCC(=O)NC2=O)C3)cn1` (stereo not shown) [Compound 43]: the GSPT1 degradation result is on record as “F (F represents degradation at 0.3 μM (>90%))”.

Still in this assay, the particulars now being: cells treated at 0.3 μM.
Turning to `Cc1ccc(NC(=O)OCc2ccc3c(c2)C(=O)N(C2CCC(=O)NC2=O)C3)cc1Cl` (stereo not shown) [Compound 10], the “GSPT1 degradation (FIG. 1A)” value is on record as “complete GSPT1 degradation”.

Source of the values: US11912682B2, “Isoindolinone compounds” (Monte Rosa Therapeutics, Inc., priority 2021, dated 2024).
